Here are results for 42 compounds from publication PMC4060991, “The Human Orphan Nuclear Receptor Tailless (TLX, NR2E1) Is Druggable” (PLoS ONE, 2014).

Structures can show the parent of a compound that is named as a salt.

The target of this assay is TLX LBD (Homo sapiens, UniProt Q9Y466). The assay can be described thus: Differential scanning fluorimetry (DSF) on purified TLX LBD.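 Further: thermal unfolding followed by Sypro-Orange fluorescence (excitation 465 nm, emission 610 nm) in 384-well plates, Tm taken from the first derivative of the denaturation curve, duplicate samples.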 Format: binding. The arrangement: cDNA fragments encoding human TLX LBD (a.a. 187–385) were cloned; His6 followed by TEV protease cleavage site (N); made in house; host or cells: E. coli BL21 (DE3) star. The settings on record: compound 500 µM. For orientation: Differential scanning fluorimetry follows unfolding on heating by fluorescence.
TLX LBD, sequence (Q9Y466 187-385): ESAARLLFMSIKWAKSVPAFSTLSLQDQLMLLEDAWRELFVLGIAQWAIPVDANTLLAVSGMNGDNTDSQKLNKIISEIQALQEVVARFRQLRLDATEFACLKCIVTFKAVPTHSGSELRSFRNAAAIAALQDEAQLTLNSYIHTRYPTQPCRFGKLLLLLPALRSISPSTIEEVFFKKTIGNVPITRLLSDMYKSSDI
For `O=NN(CCCl)C(=O)NCc1ccc[n+]([O-])c1` [1-(2-chloroethyl)-1-nitroso-3-[(1-oxidopyridin-1-ium-3-yl)methyl]urea], the “hit in DSF screen (able to bind TLX LBD, Tm shift 0.9°C or more), Table S1” value is on record as “Hits from DSF”.

Consider `Cc1cc(N)c2ccccc2[n+]1CCCCCCCCCC[n+]1c(C)cc(N)c2ccccc21.[Cl-].[Cl-]` [1-[10-(4-amino-2-methylquinolin-1-ium-1-yl)decyl]-2-methylquinolin-1-ium-4-amine chloride], for which the “hit in DSF screen (able to bind TLX LBD, Tm shift 0.9°C or more), Table S1” value is “Hits from DSF”. As to `Cc1ccc(S(=O)(=O)c2ccc([N+](=O)[O-])o2)cc1` [2-(4-methylphenyl)sulfonyl-5-nitrofuran], the “hit in DSF screen (able to bind TLX LBD, Tm shift 0.9°C or more), Table S1” value is reported as “Hits from DSF”.

`O=[N+]([O-])c1cc(C(F)(F)F)cc([N+](=O)[O-])c1CCl` [2-(chloromethyl)-1,3-dinitro-5-(trifluoromethyl)benzene]: the “hit in DSF screen (able to bind TLX LBD, Tm shift 0.9°C or more), Table S1” value is recorded as “Hits from DSF”. In the case of `COc1cc2c(cc1O)CC[C@@H]1[C@@H]2CC[C@]2(C)[C@@H](O)CC[C@@H]12` [2-Methoxyestradiol], the “hit in DSF screen (able to bind TLX LBD, Tm shift 0.9°C or more), Table S1” value is reported as “Hits from DSF”.

In the case of `COC1CC(CC2CCC(C)C(C(C)C(=O)O)O2)OC2(OC(C)(C3CCC(C)(C4OC(C5OC(O)(CO)C(C)CC5C)CC4C)O3)CC2C)C1C` (stereo not drawn) [2-[6-[[2-[5-[5-[6-hydroxy-6-(hydroxymethyl)-3,5-dimethyloxan-2-yl]-3-methyloxolan-2-yl]-5-methyloxolan-2-yl]-9-methoxy-2,4,10-trimethyl-1,6-dioxaspiro[4.5]decan-7-yl]methyl]-3-methyloxan-2-yl]propanoic acid], the “hit in DSF screen (able to bind TLX LBD, Tm shift 0.9°C or more), Table S1” value was “Hits from DSF”. `O=C1c2ccccc2C(=O)C1C(c1ccc([N+](=O)[O-])cc1)C1C(=O)c2ccccc2C1=O` [2-[(1,3-dioxoinden-2-yl)-(4-nitrophenyl)methyl]indene-1,3-dione]: the “hit in DSF screen (able to bind TLX LBD, Tm shift 0.9°C or more), Table S1” value is given as “Hits from DSF”.

Turning to `CCCCCCCCCCCCC(O)C(=O)O` (stereo not drawn) [2-hydroxytetradecanoic acid], the “hit in DSF screen (able to bind TLX LBD, Tm shift 0.9°C or more), Table S1” value is reported as “Hits from DSF”. In the case of `CCCCCC(CN1CCOCC1)C(=O)C=Cc1ccccc1` (stereo not drawn) [4-(morpholin-4-ylmethyl)-1-phenylnon-1-en-3-one], the “hit in DSF screen (able to bind TLX LBD, Tm shift 0.9°C or more), Table S1” value was “Hits from DSF”. As for `O=C(O)c1ccc(NC(c2ccccc2)c2ccc3cccnc3c2O)cc1` (stereo not drawn) [4-[[(8-hydroxyquinolin-7-yl)-phenylmethyl]amino]benzoic acid], the “hit in DSF screen (able to bind TLX LBD, Tm shift 0.9°C or more), Table S1” value is reported as “Hits from DSF”. As for `N#Cc1c(O)c2c(-c3ccc(-c4ccccc4O)cc3)csc2[nH]c1=O` [6,7-Dihydro-4-hydroxy-3-(2'-hydroxy[1,1'-biphenyl]-4-yl)-6-oxo-thieno[2,3-b]pyridine-5-carbonitrile], the “hit in DSF screen (able to bind TLX LBD, Tm shift 0.9°C or more), Table S1” value is “Hits from DSF”. For `CC(C)C1(Cl)CCC2C3(C)CCCC(C)(C(=O)O)C3CC(Cl)C2(Cl)C1Cl` (stereo not drawn) [7,8,8a,9-tetrachloro-1,4a-dimethyl-7-propan-2-yl-2,3,4,4b,5,6,8,9,10,10a-decahydrophenanthrene-1-carboxylic acid], the “hit in DSF screen (able to bind TLX LBD, Tm shift 0.9°C or more), Table S1” value is “Hits from DSF”.

Take `N#C/C(=C\c1ccc2ccccc2c1)C(=O)c1ccccc1` [(E)-2-(benzoyl)-3-naphthalen-2-ylprop-2-enenitrile]: the “hit in DSF screen (able to bind TLX LBD, Tm shift 0.9°C or more), Table S1” value is reported as “Hits from DSF”. The entry for `CCN1CCN(C(=O)Cc2ccc(Nc3ncc(F)c(Nc4ccc(C(=O)Nc5ccccc5Cl)cc4)n3)cc2)CC1` [Aurora A Inhibitor I] is “Hits from DSF”; for `N#CCNC(=O)c1ccc(-c2ccnc(Nc3ccc(N4CCOCC4)cc3)n2)cc1` [CYT387] it is “Hits from DSF”.

For the compound `CCP(CC)CC.[Au+].[Cl-]` [Chlorogold; Triethylphosphane], the “hit in DSF screen (able to bind TLX LBD, Tm shift 0.9°C or more), Table S1” value is “Hits from DSF”. Turning to `C[C@@H](NCCCc1cccc(C(F)(F)F)c1)c1cccc2ccccc12` [Cinacalcet hydrochloride, reference compound], the “hit in DSF screen (able to bind TLX LBD, Tm shift 0.9°C or more), Table S1” value was “Hits from DSF”. With `Clc1ccccc1C(c1ccccc1)(c1ccccc1)n1ccnc1` [Clotrimazole, reference compound], the “hit in DSF screen (able to bind TLX LBD, Tm shift 0.9°C or more), Table S1” value is reported as “Hits from DSF”. As to `CC(C)(C)OC(=O)N[C@H]1CCCCC/C=C\[C@@H]2C[C@@]2(C(=O)NS(=O)(=O)C2CC2)NC(=O)[C@@H]2C[C@@H](OC(=O)N3Cc4cccc(F)c4C3)CN2C1=O` [Danoprevir], the “hit in DSF screen (able to bind TLX LBD, Tm shift 0.9°C or more), Table S1” value is “Hits from DSF”.

Consider `CO[C@H]1C[C@@H]2CC[C@@H](C)[C@@](O)(O2)C(=O)C(=O)N2CCCC[C@H]2C(=O)O[C@H]([C@H](C)C[C@@H]2CC[C@@H](OP(C)(C)=O)[C@H](OC)C2)CC(=O)[C@H](C)/C=C(\C)[C@@H](O)[C@@H](OC)C(=O)[C@H](C)C[C@H](C)/C=C/C=C/C=C/1C` [Deforolimus], for which the “hit in DSF screen (able to bind TLX LBD, Tm shift 0.9°C or more), Table S1” value was “Hits from DSF”.

`[Cl][Cd][Cl]` [Dichlorocadmium]: the “hit in DSF screen (able to bind TLX LBD, Tm shift 0.9°C or more), Table S1” value is “Hits from DSF”. For `CO[C@H]1C[C@@H]2CC[C@@H](C)[C@@](O)(O2)C(=O)C(=O)N2CCCC[C@H]2C(=O)O[C@H]([C@H](C)C[C@@H]2CC[C@@H](OCCO)[C@H](OC)C2)CC(=O)[C@H](C)/C=C(\C)[C@@H](O)[C@@H](OC)C(=O)[C@H](C)C[C@H](C)/C=C/C=C/C=C/1C` [Everolimus (RAD001), Everolimus, reference compound], the “hit in DSF screen (able to bind TLX LBD, Tm shift 0.9°C or more), Table S1” value is “Hits from DSF”.

Regarding `CC(C)n1c(/C=C/C(O)CC(O)CC(=O)O)c(-c2ccc(F)cc2)c2ccccc21` (stereo not drawn) [Fluvastatin Sodium, reference compound], the “hit in DSF screen (able to bind TLX LBD, Tm shift 0.9°C or more), Table S1” value is reported as “Hits from DSF”. Take `CC(=O)N1CCN(c2ccc(OCC3COC(Cn4ccnc4)(c4ccc(Cl)cc4Cl)O3)cc2)CC1` (stereo not drawn) [Ketoconazole, reference compound]: the “hit in DSF screen (able to bind TLX LBD, Tm shift 0.9°C or more), Table S1” value is on record as “Hits from DSF”. For `CCOC(=O)N1CCC(=C2c3ccc(Cl)cc3CCc3cccnc32)CC1` [Loratadine, reference compound], the “hit in DSF screen (able to bind TLX LBD, Tm shift 0.9°C or more), Table S1” value is “Hits from DSF”.

With `COc1cc(Nc2ncc3c(n2)-c2ccc(Cl)cc2C(c2c(F)cccc2OC)=NC3)ccc1C(=O)O` [MLN8237], the “hit in DSF screen (able to bind TLX LBD, Tm shift 0.9°C or more), Table S1” value is “Hits from DSF”.

With `Cc1ccc(NC(=O)c2ccc(CN3CCN(C)CC3)cc2)cc1Nc1nc(-c2cccnc2)cs1` [Masitinib], the “hit in DSF screen (able to bind TLX LBD, Tm shift 0.9°C or more), Table S1” value is on record as “Hits from DSF”. Turning to `CC(C)c1cnn2c(NCc3ccccc3)cc(NCCCCCCN)nc12` [N5-(6-Aminohexyl)-3-isopropyl-N7-benzylpyrazolo[1,5-a]pyrimidine-5,7-diamine], the “hit in DSF screen (able to bind TLX LBD, Tm shift 0.9°C or more), Table S1” value is reported as “Hits from DSF”.

`Nc1ncnc2c1c(-c1cccc(OCc3ccccc3)c1)cn2C1CC(CN2CCCC2)C1` (stereo not drawn) [NVP-ADW742]: the “hit in DSF screen (able to bind TLX LBD, Tm shift 0.9°C or more), Table S1” value was “Hits from DSF”.

As for `COc1cccc2cc(-c3nc([C@H]4CC[C@H](C(=O)O)CC4)n4ncnc(N)c34)[nH]c12` [OSI-027], the “hit in DSF screen (able to bind TLX LBD, Tm shift 0.9°C or more), Table S1” value was “Hits from DSF”. As for `O=C(CCc1ccc(O)cc1)c1c(O)cc(O)cc1O` [Phloretin], the “hit in DSF screen (able to bind TLX LBD, Tm shift 0.9°C or more), Table S1” value is “Hits from DSF”. The entry for `CC(=O)[C@H]1CC[C@H]2[C@@H]3CCC4=CC(=O)CC[C@]4(C)[C@H]3CC[C@]12C` [Progesterone, reference compound] is “Hits from DSF”; for `O=C(c1ccc(OCCN2CCCCC2)cc1)c1c(-c2ccc(O)cc2)sc2cc(O)ccc12` [Raloxifene, reference compound] it is “Hits from DSF”; for `CC[C@H](CO)Nc1nc(NCc2ccccc2)c2ncn(C(C)C)c2n1` [Roscovitine (CYC202), Roscovitine] it is “Hits from DSF”.

As for `Cn1cc(-c2ccc3nnc(Sc4ccc5ncccc5c4)n3n2)cn1` [SGX-523], the “hit in DSF screen (able to bind TLX LBD, Tm shift 0.9°C or more), Table S1” value was “Hits from DSF”.

As to `Cc1cc(C(C)Nc2ccccc2)c2nc(N3CCOCC3)cc(=O)n2c1` (stereo not drawn) [TGX-221], the “hit in DSF screen (able to bind TLX LBD, Tm shift 0.9°C or more), Table S1” value is listed as “Hits from DSF”. For the compound `C[C@]12CC[C@H]3[C@@H](CCC4=CC(=O)CC[C@@]43C)[C@@H]1CC[C@@H]2OC(=O)CCC1CCCC1` [Testosterone cypionate, reference compound], the “hit in DSF screen (able to bind TLX LBD, Tm shift 0.9°C or more), Table S1” value is given as “Hits from DSF”. Regarding `CCC[CH2][Pb]([Cl])([CH2]CCC)[CH2]CCC` [Tributyl(chloro)plumbane], the “hit in DSF screen (able to bind TLX LBD, Tm shift 0.9°C or more), Table S1” value is reported as “Hits from DSF”. Take `CCC1=C[C@@H]2CN(C1)Cc1c([nH]c3ccccc13)[C@@](C(=O)OC)(c1cc3c(cc1OC)N(C)[C@H]1[C@@](O)(C(=O)OC)[C@H](OC(C)=O)[C@]4(CC)C=CCN5CC[C@]31[C@@H]54)C2` [Vinorelbine, reference compound]: the “hit in DSF screen (able to bind TLX LBD, Tm shift 0.9°C or more), Table S1” value is “Hits from DSF”. As to `FC(F)c1nc2ccccc2n1-c1nc(N2CCOCC2)nc(N2CCOCC2)n1` [ZSTK474], the “hit in DSF screen (able to bind TLX LBD, Tm shift 0.9°C or more), Table S1” value is listed as “Hits from DSF”. On to `CC(=O)OC(C)(C)/C=C/C(=O)[C@](C)(O)[C@H]1[C@H](O)C[C@@]2(C)[C@@H]3CC=C4[C@@H](C[C@H](O)C(=O)C4(C)C)[C@]3(C)C(=O)C[C@]12C` [[(E,6R)-6-[(2S,8S,9R,10R,13R,14S,16R,17R)-2,16-dihydroxy-4,4,9,13,14-pentamethyl-3,11-dioxo-2,7,8,10,12,15,16,17-octahydro-1H-cyclopenta[a]phenanthren-17-yl]-6-hydroxy-2-methyl-5-oxohept-3-en-2-yl] acetate], for which the “hit in DSF screen (able to bind TLX LBD, Tm shift 0.9°C or more), Table S1” value is given as “Hits from DSF”. Regarding `CNC(=O)ON(C(C)=O)C(=O)NC` [[acetyl(methylcarbamoyl)amino] N-methylcarbamate], the “hit in DSF screen (able to bind TLX LBD, Tm shift 0.9°C or more), Table S1” value is “Hits from DSF”.
